Activity calls are given as the source filed them. The rule behind the calls is not given here.

Data set [1] in a line: Inhibition of hedgehog signaling pathway in mouse NIH/3T3 cells measured after 24 hrs by Gli-dual luciferase reporter gene assay. Format: cell-based. The conditions noted are these: NIH3T3, 24 h. Background: A reporter such as luciferase makes a cellular process visible.
Data set [2] concerns NIH3T3. The experiment in a line: Cytotoxicity against mouse NIH/3T3 cells assessed as cell viability by MTS assay. Format: cell-based. (In general: Tetrazolium assays rely on reduction of a dye to a coloured formazan, in cell work by metabolically active cells.)
Data set [3] can be described thus: Inhibition of hedgehog signaling pathway in mouse NIH/3T3 cells expressing wild type Smo assessed as reduction in Gli mRNA expression by RT-PCR method. Format: cell-based. The conditions noted are these: NIH3T3.
A short description of data set [4]: Metabolic stability in human liver microsomes assessed as compound remaining at 1 uM in absence of UDPGA incubated for 5 mins by LC-ESI/MS/MS analysis relative to control. Format: ADME, microsome. The conditions noted are these: read-out: Stability.
The nature of data set [5]: Metabolic stability in human liver microsomes assessed as compound remaining at 1 uM in absence of NADPH incubated for 5 mins by LC-ESI/MS/MS analysis relative to control. Format: ADME, microsome. The conditions noted are these: read-out: Stability.
For data set [6], the species on record is Mus musculus. Description: Inhibition of hedgehog signaling pathway expressed in mouse NIH/3T3 cells assessed as inhibition of hedgehog-induced Gli-2 accumulation at tip of primary cilia by DAPI staining based confocal microscopic analysis. Format: cell-based.
A short description of data set [7]: Metabolic stability in human liver microsomes assessed as compound remaining at 1 uM preincubated for 5 mins followed by UDPGA addition measured after 30 mins by LC-ESI/MS/MS analysis relative to control. Format: ADME, microsome. The conditions noted are these: read-out: Stability.
The species entered for data set [8] is Mus musculus. The experiment in a line: Selectivity ratio of IC50 for hedgehog signaling pathway in mouse NIH/3T3 cells harboring Smo D477H mutant to IC50 for hedgehog signaling pathway in mouse NIH/3T3 cells expressing wild type Smo. Format: cell-based.
Data set [9] is described as follows: Metabolic stability in human liver microsomes assessed as compound remaining at 1 uM preincubated for 5 mins followed by NADPH addition measured after 30 mins by LC-ESI/MS/MS analysis relative to control. Format: ADME, microsome. The conditions noted are these: read-out: Stability. In general terms: Microsomes from liver hold many membrane-bound enzymes, among them those of drug oxidation.

The nature of data set [10]: Inhibition of hedgehog signaling pathway in mouse NIH/3T3 cells harboring Smo D477H mutant assessed as reduction in Gli mRNA expression by RT-PCR method. Format: cell-based. The conditions noted are these: NIH3T3.
The species named for data set [11] is Mus musculus. The experiment in a line: Inhibition of hedgehog signaling pathway in mouse NIH/3T3 cells assessed as inhibition of hedgehog-induced Smo-EGFP ciliary translocation by DAPI staining based confocal microscopic analysis. Format: cell-based.
The species entered for data set [12] is Mus musculus. Description: Inhibition of hedgehog signaling pathway in Ptch deficient MEF assessed as downregulation of Gli-1 expression by Immunoblot analysis.

On to `CC1CCN(c2ccc(-n3cnc4c(-c5ccc(OC(F)(F)F)cc5)cccc4c3=O)cn2)CC1`, for which, in [1], the IC50 is 847 nM. In data set [2], the Activity was greater than 20 µM.

For `Cc1c(C(=O)Nc2ccc(N3C[C@@H](C)O[C@@H](C)C3)nc2)cccc1-c1ccc(OC(F)(F)F)cc1` [SONIDEGIB], the IC50 in data set [3] is 4.4 nM; in data set [1], 6 nM; in data set [10], 22.7 nM. Also, the remaining at 5 min, 1 µM in [4] worked out at 89.5%; in data set [5], 99.7%. The inhibition result in data set [6] and in data set [11] was “Active” in each case. Moreover, the remaining at 0.5 h, 1 µM in data set [7] turned out to be 88.4%; in [9], 68%. For the same compound, the Ratio IC50 in data set [8] came out at 5.16. Further, the Activity in data set [2] is greater than 20 µM.

Regarding `O=c1c2cccc(-c3ccc(OC(F)(F)F)cc3)c2ncn1CCCn1ccnc1`, the IC50 in data set [1] was found to be 5280 nM. The Activity in data set [2] was greater than 20 µM.

Regarding `O=C1CC2(CCCC2)CC(=O)N1CCCCN1CCN(c2ncccn2)CC1` [BUSPIRONE], in [5], the remaining at 5 min, 1 µM came out at 96.7%. The remaining at 0.5 h, 1 µM in [9] was 5.17%.

In data set [1], `C[C@@H]1CN(c2cc(N3Cc4c(cccc4-c4ccc(OC(F)(F)F)cc4)C3=O)ncn2)C[C@H](C)O1` had a half-maximal inhibitory concentration (IC50) of 1140 nM. The Activity in data set [2] is greater than 20 µM.

Regarding `C[C@@H]1CN(c2ccc(-n3cnc4c(-c5ccccc5)cccc4c3=O)cn2)C[C@H](C)O1`, the IC50 in [3] was 257 nM; in [1], 38 nM; in [10] it was 91.1 nM. For the same compound, the remaining at 5 min, 1 µM in [4] turned out to be 93.1%; in data set [5], 83.7%. Moreover, the inhibition result in data set [12], in data set [6] and in [11] was “Active” each time. Moreover, the results for the remaining at 0.5 h, 1 µM in data set [7] and in data set [9] were 91% and 68.2%, respectively. The Ratio IC50 in data set [8] turned out to be 0.355. Besides, the Activity in data set [2] is greater than 20 µM.

As to `O=c1c2cccc(-c3ccccc3)c2ncn1-c1ccc(N2CCOCC2)cc1`, in data set [1], the IC50 came out at 132 nM. Besides, the Activity in data set [2] is greater than 20 µM.

`O=c1c2cccc(-c3ccc(OC(F)(F)F)cc3)c2ncn1CCN1CCOCC1` yielded a concentration for half-maximal inhibition (IC50) in data set [1] of 6600 nM. The Activity in [2] is greater than 20 µM.

As for `O=c1c2cccc(Cl)c2ncn1-c1ccc(F)cc1`, the IC50 in [1] is 269 nM. Besides, the Activity in [2] is greater than 20 µM.

`C[C@@H]1CN(c2ccc(-n3cnc4c(-c5cccc6ccccc56)cccc4c3=O)cn2)C[C@H](C)O1` registered a half-inhibitory concentration (IC50) in [1] of 439 nM. The Activity in data set [2] was greater than 20 µM.

Take `O=c1c2cccc(-c3ccc(OC(F)(F)F)cc3)c2ncn1-c1ccc(N2CCOCC2)nc1`: in data set [1], the midpoint of inhibition, the IC50, lay at 5410 nM. In addition, the Activity in data set [2] is greater than 20 µM.

With `C[C@@H]1CN(c2ccc(-n3cnc4c(-c5ccc(F)cc5)cccc4c3=O)cn2)C[C@H](C)O1`, the values for the IC50 in data set [3], in [1] and in data set [10] were 114 nM, 118 nM and 246 nM, respectively. For the same compound, the figures for the remaining at 5 min, 1 µM in [4] and in [5] were 83.2% and 91.3%, respectively. The inhibition entry in [12], in [6] and in data set [11] was “Active” throughout. Moreover, the remaining at 0.5 h, 1 µM was 83.5% in data set [7] and 76.3% in data set [9]. In addition, the Ratio IC50 in data set [8] was determined as 2.16. The Activity in [2] was greater than 20 µM.

In the case of `COc1ccc(-c2cccc3c(=O)n(-c4ccc(N5C[C@@H](C)O[C@@H](C)C5)nc4)cnc23)cc1`, the IC50 in data set [1] is 196 nM. For the same compound, in data set [2], the Activity is greater than 20 µM.

Turning to `C[C@@H]1CN(c2ccc(-n3cnc4c(-c5ccc(OC(F)(F)F)cc5)cccc4c3=O)cn2)C[C@H](C)O1`, it took 159 nM to reach half-maximal inhibition in data set [1] (IC50). Moreover, the Activity in data set [2] is greater than 20 µM.

For the compound `C[C@@H]1CN(c2cc(-n3cnc4c(Cl)cccc4c3=O)ncn2)C[C@H](C)O1`, the concentration for half-maximal inhibition (IC50) in [1] stood at 1240 nM. For the same compound, in data set [2], the Activity is greater than 20 µM.

As for `C[C@@H]1CN(c2ccc(N3Cc4c(cccc4-c4ccc(F)cc4F)C3=O)cn2)C[C@H](C)O1`, in data set [1], 1710 nM corresponded to half-maximal inhibition (IC50). For the same compound, in data set [2], the Activity is greater than 20 µM.

Compound `C[C@@H]1CN(c2ccc(N3Cc4c(cccc4-c4cccnc4)C3=O)cn2)C[C@H](C)O1` came in with an IC50 in data set [1] of 7690 nM. In addition, the Activity in data set [2] was greater than 20 µM.

In data set [1], `C[C@@H]1CN(c2ccc(N3Cc4c(cccc4-c4ccc(OC(F)(F)F)cc4)C3=O)cn2)C[C@H](C)O1` showed an IC50 of 1800 nM. The Activity in data set [2] is greater than 20 µM.

With `O=c1c2cccc(Cl)c2ncn1-c1ccc(N2CCOCC2)cc1`, the half-inhibitory concentration (IC50) in data set [1] is greater than 20000 nM. Besides, the Activity in data set [2] was greater than 20 µM.

In data set [1], `C[C@@H]1CN(c2cc(-n3cnc4c(-c5ccc(OC(F)(F)F)cc5)cccc4c3=O)ncn2)C[C@H](C)O1` came in with an IC50 of 44200 nM. The Activity in data set [2] was greater than 20 µM.

On to `O=c1c2cccc(-c3ccc(OC(F)(F)F)cc3)c2ncn1-c1ccc(N2CCOCC2)cc1`, for which, in data set [1], the IC50 was 4520 nM. Besides, in [2], the Activity was greater than 20 µM.

For the compound `CC1CCN(c2cc(-n3cnc4c(-c5ccc(OC(F)(F)F)cc5)cccc4c3=O)ncn2)CC1`, the IC50 in [1] came to 7700 nM. Besides, the Activity in [2] is greater than 20 µM.

As to `Cc1cc(=O)oc2cc(O)ccc12` [HYMECROMONE], the remaining at 5 min, 1 µM in [4] was 92.2%. Besides, the remaining at 0.5 h, 1 µM in [7] was found to be 0.46%.

On to `C[C@@H]1CN(c2ccc(-n3cnc4c(-c5ccc(OC(F)(F)F)cc5)cccc4c3=O)nc2)C[C@H](C)O1`, for which it took 196 nM to reach half-maximal inhibition in data set [1] (IC50). In addition, the Activity in data set [2] was greater than 20 µM.

Turning to `COc1cccc(-c2cccc3c(=O)n(-c4ccc(N5CCOCC5)cc4)cnc23)c1`, in data set [1], it took 433 nM to reach half-maximal inhibition (IC50). Also, in [2], the Activity is greater than 20 µM.

The compound `C[C@@H]1CN(c2ccc(-n3cnc4c(-c5ccc(S(C)(=O)=O)cc5)cccc4c3=O)cn2)C[C@H](C)O1` registered an IC50 in data set [1] of 430 nM. For the same compound, the Activity in [2] is greater than 20 µM.

As for `O=c1c2cccc(Cl)c2ncn1-c1ccc(N2CCOCC2)nc1`, in data set [1], the IC50 amounted to 15300 nM. In addition, in data set [2], the Activity was greater than 20 µM.

Turning to `Cc1ccc(-c2cccc3c(=O)n(-c4ccc(N5C[C@@H](C)O[C@@H](C)C5)nc4)cnc23)cc1`, in data set [1], half-maximal inhibition (IC50) was put at 305 nM. Also, in data set [2], the Activity is greater than 20 µM.

In data set [1], `C[C@@H]1CN(c2ccc(-n3cnc4c(Cl)cccc4c3=O)cn2)C[C@H](C)O1` displayed an IC50 of 7490 nM. The Activity in data set [2] is greater than 20 µM.

For `CS(=O)(=O)c1ccc(C(=O)Nc2ccc(Cl)c(-c3ccccn3)c2)c(Cl)c1` [VISMODEGIB], the IC50 was found to be 14.4 nM in data set [3], 5 nM in data set [1] and 1200 nM in [10]. Besides, the inhibition result in [6] and in data set [11] was “Active” in each case. The Ratio IC50 in data set [8] was 82.7.

The term IC50 denotes the concentration at which inhibition is half-maximal.

The values above are taken from ChEMBL document CHEMBL4041510, “Design, synthesis, and biological evaluation of structurally modified isoindolinone and quinazolinone derivatives as hedgehog pathway inhibitors” (Eur J Med Chem, 2017).
